Counter-ions that a name gives are not always drawn.
Columns and labels:
[1] = Stage B, ANOVA of repeated measures
clinical [2] = settings: both, human, in vivo
clinical [3] = settings: both, human, in vivo, oral
C57BL/6 mice = test: Glycemia and dietary intake in C57BL/6 mice; assay type: in vivo, mouse; settings: 1 week
Excerpt: The mean glycemic values at the beginning and end of the experiment are represented for each group (n=3) with their standard deviations.

[4] = system: proIL-1β, TNFα, iNOS, IL-6, MCP-1 and IL-12; test: Inflammation marker expression in palmitate-stimulated L1 adipocytes (RT-qPCR); assay type: cell-based; settings: 10 mM, palmitate 500 μM, 24 h
Description: Palmitate is a saturated fatty acid that simulates an experimental obese state. It can be used as a pro-inflammatory stimulant for cytokines such as proIL-1β, TNFα, iNOS, IL-6, MCP-1 and IL-12.
Next, the relative expression of inflammation markers was analyzed by RT and qPCR using HPRT-1 as a normalizer and the untreated cell expression levels as a reference (for MCP-1 and IL-12) or those treated palmitate. After the treatments, culture media were collected and subsequently analyzed, cells were washed with PBS, and RNA was extracted (illustra RNAspin Mini, GE Healthcare) and reverse transcribed (High Capacity cDNA Reverse Transcription Kit, Life Technologies). The expression of the genes that were the object of the study was analyzed by qPCR using specific probes (TaqMan® Gene Expression Assays, Life Technologies). The relative expression (RQ), represented in the figure, was calculated by the ΔΔCt method.

VAPA and VAMPs = test: Colocalization of VAPA and VAMPs (FIG. 18)
GPBP = target: T1, GPBP (Homo sapiens, UniProt Q9Y5P4); settings: 1 mM, 24 h
T1 sequence (Q9Y5P4 1-624): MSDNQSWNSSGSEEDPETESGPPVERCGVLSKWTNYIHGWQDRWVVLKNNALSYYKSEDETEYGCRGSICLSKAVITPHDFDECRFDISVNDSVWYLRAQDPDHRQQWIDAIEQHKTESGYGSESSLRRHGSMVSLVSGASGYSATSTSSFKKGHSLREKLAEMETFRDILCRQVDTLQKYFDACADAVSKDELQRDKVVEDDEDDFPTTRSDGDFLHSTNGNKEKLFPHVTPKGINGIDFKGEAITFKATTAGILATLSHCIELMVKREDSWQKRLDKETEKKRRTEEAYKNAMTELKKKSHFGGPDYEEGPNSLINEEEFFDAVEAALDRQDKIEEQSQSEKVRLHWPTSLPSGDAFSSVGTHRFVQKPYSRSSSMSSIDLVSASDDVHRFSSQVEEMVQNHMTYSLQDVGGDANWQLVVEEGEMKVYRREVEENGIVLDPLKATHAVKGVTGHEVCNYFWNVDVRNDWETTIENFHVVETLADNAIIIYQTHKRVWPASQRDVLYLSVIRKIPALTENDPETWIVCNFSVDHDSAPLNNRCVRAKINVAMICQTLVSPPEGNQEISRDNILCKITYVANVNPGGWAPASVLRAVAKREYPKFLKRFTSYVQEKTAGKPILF

[5] = system: IRS2 knockout mice (KO IRS2); test: Body weight in IRS2 knockout mice; assay type: in vivo, mouse; settings: 100 mg/kg/day, 8 weeks
Description: Body weight of the mice was measured prior to the onset of treatment, at 4 weeks after treatment, and at 8 weeks after treatment. There were 8 mice in each group at the pre-treatment and 4-week treatment time points. […] Statistical differences between the experimental groups shown in FIG. 20 were assessed by Student's T test. P value of <0.05 is indicated by *.

[6] = system: IRS2 knockout mice (KO IRS2); test: Serum triglycerides in IRS2 knockout mice; assay type: in vivo, mouse; settings: 100 mg/kg/day, 8 weeks, fasting
Description: At the 8-week treatment time point, there were 8 mice in each of the WT groups, 6 mice in the KO IRS2 untreated control group, 7 mice in the KO IRS2 SLN1 treated group, and 8 mice in the KO SLN2 treated group. Blood was collected at the time of sacrifice and used to measure TG under fasting conditions. […] Statistical differences between the experimental groups shown in FIG. 21 were assessed by Student's T test. P value of <0.05 is indicated by *.

GLUT4 = GLUT4 translocation (FIG. 19A)
C2C12 myotubes = test: Glucose concentration of C2C12 myotube cultures in M1 macrophage conditioned media; assay type: cell-based, mouse; settings: macrophages treated with 10 mM for 2 h, then LPS/IFNγ 16 h
Description: There is considerable evidence showing that inflammation and hyperglycemia are interconnected: inflammation induces hyperglycemia and reciprocally hyperglycemia induces inflammation with the molecular bases not elucidated yet. To explore the participation of GPBP, glucose intake under normoglycemic conditions with conditioned media generated by macrophages differentiated to a proinflammatory M1 phenotype was monitored.
[…]. The glucose concentration of the myotube cultures was determined at different times with Glucocard (Arkray). The controls used were the C2C12 cultured with media conditioned with no stimulated macrophages (Cells) or with M1 conditioned media (M1). The initial glucose levels (time 0) were used as a reference (100%) in each series.

IRS2−/− (KO) mice = test: Fasting glycemia and insulinemia in female IRS2−/− mice; assay type: in vivo, mouse; settings: 4 weeks
Excerpt: Insulin resistance characterizes type 2 diabetes, obesity, and the metabolic syndrome. Thus, insulin sensitivity is a major therapeutic objective for these metabolic diseases. Insulin receptor substrate (IRS) proteins regulate the physiological actions of insulin upon binding to the receptor. Specific deletion of IRS2 in mice produces diabetes due to a developmental reduction of the pancreatic β-cell mass and the inability of existing β-cells to expand in response to peripheral insulin resistance. Additionally, IRS2-deficiency in mice causes hepatic insulin resistance concurrent with failed suppression of hepatic glucose production. While male IRS2−/− mice often die of diabetic complications by 12 weeks of age, females IRS2−/− mice develop a milder form of diabetes and many live up to 6 months. The observation that female IRS2−/− mice eat more than controls led to the discovery that this molecule is critical for hypothalamic regulation of food intake.
The mean glycemic values are represented per group (n=3) pre-treatment (black bars) and post-treatment (gray bars) along with their standard deviations. […] The fasting serum insulin levels taken pre-treatment (black bars) and post-treatment (gray bars) were determined using a kit (Millipore), following the manufacturer's instructions. Mean values and standard deviations are presented for each group (n=3) (FIG. 12D).
Due to peripheral resistance to insulin, the IRS2−/− mice also develop hyperinsulinemia.

AS160 = test: In vitro AS160 phosphorylation in the presence of GPBP, AMPK and AKT; assay type: biochemical; settings: 5 mM, with FLAG-GPBP, AKT, AMPK
Description: The reactions (25 μL) were carried out at 30° C., and stirred (350 rpm) for 15 min. Then, they were stopped with a reducing loading buffer, heated (95° C., 2 min), and analyzed using electrophoresis, electrotransfer, and autoradiography.

Row | AUC (clinical [2]) | AUC (clinical [3]) | AUC (clinical [3]; 1240 mg) | high molecular weight GPBP aggregates (GPBP) | Structure (SMILES) | Ln AUCt, Ln AUC12 and Ln AUC0, differences attributed to formula, period and sequence factors [1] | Ln Cmax, differences attributed to formula, period and sequence factors [1] | Ln Cmin, differences attributed to formula, period and sequence factors [1] | glycemia, end vs beginning (C57BL/6 mice; 100 mg/kg/day mixed with solid food, n=3) | food intake compared to untreated mice (C57BL/6 mice; 100 mg/kg/day) | inflammatory response of palmitate-stimulated adipocytes [4] | colocalization of VAPA and VAMPS (VAPA and VAMPs) | colocalization of VAPA and VAMPS, comparison SLN1 vs SLN2 (VAPA and VAMPs) | average body weight, post- vs pre-treatment [5] | serum triglycerides compared to untreated KO IRS2 [6] | GLUT4 translocation (GLUT4) | glucose levels of myotube cultures (hyperglycemic levels) (C2C12 myotubes) | fasting glycemia post-treatment (IRS2−/− (KO) mice; 100 mg/kg/day with food, 10-12 weeks old) | fasting insulin levels (IRS2−/− (KO) mice; 100 mg/kg/day) | phosphorylation of AS160 (AS160)
1 | 92.4 to 109 µg·h/mL | 119 to 134 µg·h/mL | 76.1 to 92.5 µg·h/mL |  | CN(C)C(=N)N=C(N)N [Metformin, metformin] | did not show statistically significant differences | did not show statistically significant differences | did not show statistically significant differences |  |  |  |  |  |  |  |  |  |  |  | 
2 |  |  |  | not present | CN(C)C(=N)N=C(N)N [Metformin hydrochloride, metformin hydrochloride, reference compound] |  |  |  | significantly reduced glycemia | food intake was greater | attenuated the inflammatory response | reduced colocalization | greater reduction effect | not significantly different | lower | failed to do so | slowed down the progression towards hyperglycemia | slightly lower, though not statistically significant | higher than at the initiation of the experiment | inhibited AS160 phosphorylation

— patent US11185516B2 (Laboratorios Silanes S.A. DE C.V., priority 2016, dated 2021)
